Test results as given in ChEMBL document CHEMBL4800731, “Data for DCP probe JNJ-65355394” (2021).
One block for each compound: values may come before it.

Assays:
[1] = organism: Rattus norvegicus; assay: rSKCaCH Cerep panel
[2] = target: D(2) dopamine receptor (Homo sapiens) (UniProt P14416); assay: hD2S Cerep panel
[3] = target: Sodium-dependent noradrenaline transporter (Homo sapiens) (UniProt P23975); assay: hNET Cerep panel
[4] = target: Neuropeptide Y receptor type 2 (Homo sapiens) (UniProt P49146); assay: hNPY2 Cerep panel
[5] = organism: Rattus norvegicus; assay: rNaCH Cerep panel
[6] = target: Somatostatin receptor (Mus musculus) (UniProt P30935+O08858+P30875+P30873+P49660); assay: mSST Cerep panel; format: protein assay
[7] = target: 5-hydroxytryptamine receptor 5A (Homo sapiens) (UniProt P47898); assay: h5HT5A Cerep panel
[8] = organism: Rattus norvegicus; assay: rKCH Cerep panel
[9] = target: Nociceptin receptor (Homo sapiens) (UniProt P41146); assay: hORL1 Cerep panel
[10] = target: Delta-type opioid receptor (Homo sapiens) (UniProt P41143); assay: hOP1 Cerep panel
[11] = target: T1, 5-hydroxytryptamine receptor 3A (Homo sapiens) (UniProt P46098); assay: h5HT3 Cerep panel
T1 sequence (whole entry): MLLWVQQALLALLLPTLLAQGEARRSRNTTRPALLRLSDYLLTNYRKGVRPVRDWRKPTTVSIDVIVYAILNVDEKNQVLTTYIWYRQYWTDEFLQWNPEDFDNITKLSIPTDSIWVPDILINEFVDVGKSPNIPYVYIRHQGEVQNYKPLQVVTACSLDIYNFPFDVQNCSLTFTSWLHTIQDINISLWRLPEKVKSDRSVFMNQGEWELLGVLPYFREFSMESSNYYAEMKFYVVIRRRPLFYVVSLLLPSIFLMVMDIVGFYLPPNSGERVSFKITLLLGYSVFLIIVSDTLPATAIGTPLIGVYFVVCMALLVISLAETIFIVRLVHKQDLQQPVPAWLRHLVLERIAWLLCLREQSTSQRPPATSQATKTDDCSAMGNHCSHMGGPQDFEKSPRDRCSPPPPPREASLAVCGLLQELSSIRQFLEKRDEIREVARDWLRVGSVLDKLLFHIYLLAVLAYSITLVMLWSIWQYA

[12] = target: Kappa-type opioid receptor (Homo sapiens, UniProt P41145); assay: GPCRScan assay: inhibition of KOR; design: radioligand conc. used [nm] 0.6 – 1.2, parental cells stable HEK
[13] = target: Galanin receptor type 2 (Homo sapiens) (UniProt O43603); assay: hGAL2 Cerep panel
[14] = target: Alpha-2A adrenergic receptor (Rattus norvegicus) (UniProt P22909); assay: rAa2 Cerep panel
[15] = target: 5-hydroxytryptamine receptor 6 (Homo sapiens) (UniProt P50406); assay: h5HT6 Cerep panel
[16] = target: T2, Muscarinic acetylcholine receptor M1 (Homo sapiens) (UniProt P11229); assay: hM1 Cerep panel
T2 sequence (whole entry): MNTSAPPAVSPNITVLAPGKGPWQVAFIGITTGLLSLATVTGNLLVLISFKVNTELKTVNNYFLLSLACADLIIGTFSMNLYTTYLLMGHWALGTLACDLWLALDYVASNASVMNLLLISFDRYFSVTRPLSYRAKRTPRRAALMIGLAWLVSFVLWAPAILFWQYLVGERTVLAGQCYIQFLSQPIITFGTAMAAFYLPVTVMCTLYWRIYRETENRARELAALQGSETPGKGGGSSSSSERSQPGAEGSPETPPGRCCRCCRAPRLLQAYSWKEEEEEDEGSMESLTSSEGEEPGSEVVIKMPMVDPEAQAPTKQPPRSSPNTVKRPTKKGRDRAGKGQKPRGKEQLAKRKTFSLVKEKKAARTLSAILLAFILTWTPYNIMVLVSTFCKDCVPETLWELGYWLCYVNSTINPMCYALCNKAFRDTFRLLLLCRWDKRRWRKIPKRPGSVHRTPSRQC

[17] = target: C-X-C chemokine receptor type 2 (Homo sapiens) (UniProt P25025); assay: hBCXCR2 Cerep panel
[18] = target: T3, Sodium-dependent dopamine transporter (Homo sapiens, UniProt Q01959); assay: hDAT Cerep panel
[19] = cML1 Cerep panel
[20] = target: Neuromedin-K receptor (Homo sapiens) (UniProt P29371); assay: hNK3 Cerep panel
[21] = target: Beta-3 adrenergic receptor (Homo sapiens) (UniProt P13945); conditions: Compound concentration 10.0 uM
[22] = target: T3, Sodium-dependent dopamine transporter; assay: GPCRScan assay: inhibition of DAT; design: radioligand conc. used [nm] 3.6 – 16.0, parental cells stable HEK
[23] = target: Sigma intracellular receptor 2 (Homo sapiens, UniProt Q5BJF2); assay: GPCRScan assay: inhibition of Sigma 2; design: radioligand conc. used [nm] 5.0, parental cells HEKT
[24] = target: Sodium-dependent serotonin transporter (Homo sapiens, UniProt P31645); assay: GPCRScan assay: inhibition of SERT; design: radioligand conc. used [nm] 1.5 – 2.0, parental cells stable HEK
[25] = target: Sigma non-opioid intracellular receptor 1 (Homo sapiens, UniProt Q99720); assay: GPCRScan assay: inhibition of Sigma 1; design: radioligand conc. used [nm] 4.0 – 5.0, parental cells HEKT
[26] = target: 5-hydroxytryptamine receptor 1E (Homo sapiens) (UniProt P28566); conditions: Compound concentration 10.0 uM

T3 sequence (Q01959 whole entry): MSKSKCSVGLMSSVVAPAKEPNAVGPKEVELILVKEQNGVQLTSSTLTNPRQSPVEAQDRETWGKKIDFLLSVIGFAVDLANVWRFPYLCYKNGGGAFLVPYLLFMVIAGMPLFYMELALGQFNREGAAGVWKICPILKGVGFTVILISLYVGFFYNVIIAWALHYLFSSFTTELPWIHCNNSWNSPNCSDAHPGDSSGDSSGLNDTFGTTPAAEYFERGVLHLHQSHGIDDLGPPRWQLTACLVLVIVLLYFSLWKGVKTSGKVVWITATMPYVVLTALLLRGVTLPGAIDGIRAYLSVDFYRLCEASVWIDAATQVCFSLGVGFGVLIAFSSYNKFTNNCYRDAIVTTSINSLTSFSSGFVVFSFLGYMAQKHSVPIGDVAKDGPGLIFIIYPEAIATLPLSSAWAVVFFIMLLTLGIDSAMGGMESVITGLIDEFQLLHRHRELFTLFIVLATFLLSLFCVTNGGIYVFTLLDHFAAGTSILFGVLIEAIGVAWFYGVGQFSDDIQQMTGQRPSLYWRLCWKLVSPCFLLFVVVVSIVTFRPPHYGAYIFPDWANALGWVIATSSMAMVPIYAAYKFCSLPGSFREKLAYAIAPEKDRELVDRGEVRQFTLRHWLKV
Kappa-type opioid receptor, sequence (P41145 whole entry): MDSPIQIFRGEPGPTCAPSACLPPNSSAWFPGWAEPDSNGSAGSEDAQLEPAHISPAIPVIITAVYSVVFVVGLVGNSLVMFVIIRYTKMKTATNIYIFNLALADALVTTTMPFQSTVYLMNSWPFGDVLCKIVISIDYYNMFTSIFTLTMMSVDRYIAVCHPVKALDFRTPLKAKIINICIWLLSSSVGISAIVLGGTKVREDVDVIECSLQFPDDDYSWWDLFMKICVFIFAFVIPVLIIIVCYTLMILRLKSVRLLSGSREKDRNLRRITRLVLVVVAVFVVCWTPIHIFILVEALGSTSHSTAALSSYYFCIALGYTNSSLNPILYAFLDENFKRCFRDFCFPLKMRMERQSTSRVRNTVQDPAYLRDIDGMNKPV
Sigma intracellular receptor 2, sequence (Q5BJF2 whole entry): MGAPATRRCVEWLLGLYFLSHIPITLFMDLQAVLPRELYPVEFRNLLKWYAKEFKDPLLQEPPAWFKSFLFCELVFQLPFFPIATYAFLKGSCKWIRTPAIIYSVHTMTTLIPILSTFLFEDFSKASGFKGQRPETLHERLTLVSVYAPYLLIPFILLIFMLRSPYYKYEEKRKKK
Sodium-dependent serotonin transporter, sequence (P31645 whole entry): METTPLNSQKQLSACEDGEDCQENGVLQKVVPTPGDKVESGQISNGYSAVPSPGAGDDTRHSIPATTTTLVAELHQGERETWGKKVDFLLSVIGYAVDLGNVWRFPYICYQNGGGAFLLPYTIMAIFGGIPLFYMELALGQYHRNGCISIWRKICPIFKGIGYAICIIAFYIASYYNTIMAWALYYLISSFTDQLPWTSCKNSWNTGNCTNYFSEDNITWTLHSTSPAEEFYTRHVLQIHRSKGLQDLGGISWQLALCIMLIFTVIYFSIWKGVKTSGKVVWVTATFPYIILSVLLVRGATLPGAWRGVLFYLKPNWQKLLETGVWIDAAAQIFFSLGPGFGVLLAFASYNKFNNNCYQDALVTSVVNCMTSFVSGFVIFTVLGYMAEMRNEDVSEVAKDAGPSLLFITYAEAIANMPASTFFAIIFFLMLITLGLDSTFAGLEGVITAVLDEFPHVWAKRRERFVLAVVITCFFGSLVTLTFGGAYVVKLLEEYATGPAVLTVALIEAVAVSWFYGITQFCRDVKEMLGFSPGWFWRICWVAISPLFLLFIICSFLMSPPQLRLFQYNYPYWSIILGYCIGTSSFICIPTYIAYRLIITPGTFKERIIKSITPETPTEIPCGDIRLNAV
5-hydroxytryptamine receptor 6 (Homo sapiens), sequence (P50406 whole entry): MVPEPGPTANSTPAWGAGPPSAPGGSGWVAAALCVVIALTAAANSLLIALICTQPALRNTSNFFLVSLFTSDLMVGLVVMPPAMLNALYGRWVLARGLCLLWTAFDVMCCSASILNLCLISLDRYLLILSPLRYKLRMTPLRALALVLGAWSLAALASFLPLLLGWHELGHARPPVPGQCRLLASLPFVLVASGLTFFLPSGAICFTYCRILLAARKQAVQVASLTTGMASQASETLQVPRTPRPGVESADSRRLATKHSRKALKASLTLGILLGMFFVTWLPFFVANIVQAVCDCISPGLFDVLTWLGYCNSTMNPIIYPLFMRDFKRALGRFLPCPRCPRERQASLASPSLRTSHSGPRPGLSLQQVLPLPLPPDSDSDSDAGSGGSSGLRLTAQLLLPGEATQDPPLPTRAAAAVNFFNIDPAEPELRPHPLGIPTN
Somatostatin receptor (Mus musculus), sequence (P30935 whole entry): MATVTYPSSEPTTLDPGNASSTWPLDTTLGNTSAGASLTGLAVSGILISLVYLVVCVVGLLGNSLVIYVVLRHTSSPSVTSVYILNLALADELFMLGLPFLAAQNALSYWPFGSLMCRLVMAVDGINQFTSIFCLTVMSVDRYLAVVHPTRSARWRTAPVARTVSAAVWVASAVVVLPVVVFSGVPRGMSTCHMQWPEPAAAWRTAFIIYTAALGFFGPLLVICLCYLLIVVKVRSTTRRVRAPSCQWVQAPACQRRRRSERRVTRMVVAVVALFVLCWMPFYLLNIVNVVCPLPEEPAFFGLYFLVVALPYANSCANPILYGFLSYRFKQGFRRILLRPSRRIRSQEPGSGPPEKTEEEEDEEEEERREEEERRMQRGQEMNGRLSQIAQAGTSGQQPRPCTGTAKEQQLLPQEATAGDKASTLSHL
Somatostatin receptor (Mus musculus), sequence (O08858 whole entry): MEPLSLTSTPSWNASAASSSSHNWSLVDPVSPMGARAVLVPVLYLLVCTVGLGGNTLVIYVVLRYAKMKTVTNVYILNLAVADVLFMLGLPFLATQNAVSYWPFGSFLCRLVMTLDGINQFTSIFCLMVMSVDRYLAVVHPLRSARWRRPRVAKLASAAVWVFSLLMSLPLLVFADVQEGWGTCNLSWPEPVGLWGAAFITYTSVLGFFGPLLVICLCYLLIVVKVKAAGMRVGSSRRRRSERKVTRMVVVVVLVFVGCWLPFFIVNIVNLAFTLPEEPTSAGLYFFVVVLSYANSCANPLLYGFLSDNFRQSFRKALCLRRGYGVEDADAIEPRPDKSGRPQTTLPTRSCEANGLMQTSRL
Somatostatin receptor (Mus musculus), sequence (P30875 whole entry): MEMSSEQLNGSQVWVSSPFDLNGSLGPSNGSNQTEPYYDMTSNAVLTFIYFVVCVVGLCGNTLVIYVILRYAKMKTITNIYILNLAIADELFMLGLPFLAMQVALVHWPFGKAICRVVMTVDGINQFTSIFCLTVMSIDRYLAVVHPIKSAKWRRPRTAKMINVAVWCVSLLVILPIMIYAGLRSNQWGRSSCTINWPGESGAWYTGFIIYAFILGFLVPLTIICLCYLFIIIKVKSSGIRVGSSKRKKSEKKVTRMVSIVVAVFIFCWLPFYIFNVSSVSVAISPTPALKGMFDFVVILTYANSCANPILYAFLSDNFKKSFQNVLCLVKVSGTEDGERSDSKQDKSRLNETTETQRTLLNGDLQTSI
Somatostatin receptor (Mus musculus), sequence (P30873 whole entry): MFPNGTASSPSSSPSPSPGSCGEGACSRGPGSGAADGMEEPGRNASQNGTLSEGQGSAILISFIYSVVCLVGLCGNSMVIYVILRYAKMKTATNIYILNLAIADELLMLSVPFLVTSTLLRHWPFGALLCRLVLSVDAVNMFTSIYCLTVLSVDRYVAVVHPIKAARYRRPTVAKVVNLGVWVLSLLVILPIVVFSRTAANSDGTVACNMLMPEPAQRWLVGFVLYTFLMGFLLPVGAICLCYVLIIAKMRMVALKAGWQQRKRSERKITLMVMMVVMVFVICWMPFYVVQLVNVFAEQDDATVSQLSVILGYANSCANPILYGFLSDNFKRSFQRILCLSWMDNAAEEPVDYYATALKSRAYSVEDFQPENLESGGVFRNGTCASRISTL
Somatostatin receptor (Mus musculus), sequence (P49660 with tags, fused parts or gaps): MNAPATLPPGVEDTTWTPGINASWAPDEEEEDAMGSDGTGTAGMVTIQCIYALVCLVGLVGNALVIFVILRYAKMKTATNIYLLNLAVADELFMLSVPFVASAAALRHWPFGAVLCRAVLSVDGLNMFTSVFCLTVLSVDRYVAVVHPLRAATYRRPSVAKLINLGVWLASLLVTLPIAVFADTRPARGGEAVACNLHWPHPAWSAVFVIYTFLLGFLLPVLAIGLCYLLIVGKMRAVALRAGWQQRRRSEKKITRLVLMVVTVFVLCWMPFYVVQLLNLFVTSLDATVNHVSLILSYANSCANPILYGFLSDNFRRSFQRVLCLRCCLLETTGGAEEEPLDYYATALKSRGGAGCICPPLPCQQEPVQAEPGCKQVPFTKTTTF
5-hydroxytryptamine receptor 5A (Homo sapiens), sequence (P47898 whole entry): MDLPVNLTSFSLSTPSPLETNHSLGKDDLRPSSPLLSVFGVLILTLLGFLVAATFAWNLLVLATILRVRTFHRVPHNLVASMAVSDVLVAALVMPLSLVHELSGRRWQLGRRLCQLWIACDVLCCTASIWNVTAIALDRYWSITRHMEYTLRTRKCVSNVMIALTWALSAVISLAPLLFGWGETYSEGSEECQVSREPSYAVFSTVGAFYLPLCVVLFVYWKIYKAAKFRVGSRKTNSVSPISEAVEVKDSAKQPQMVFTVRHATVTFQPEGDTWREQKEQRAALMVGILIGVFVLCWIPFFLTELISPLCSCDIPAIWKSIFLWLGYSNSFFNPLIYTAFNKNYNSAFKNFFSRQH
Galanin receptor type 2 (Homo sapiens), sequence (O43603 whole entry): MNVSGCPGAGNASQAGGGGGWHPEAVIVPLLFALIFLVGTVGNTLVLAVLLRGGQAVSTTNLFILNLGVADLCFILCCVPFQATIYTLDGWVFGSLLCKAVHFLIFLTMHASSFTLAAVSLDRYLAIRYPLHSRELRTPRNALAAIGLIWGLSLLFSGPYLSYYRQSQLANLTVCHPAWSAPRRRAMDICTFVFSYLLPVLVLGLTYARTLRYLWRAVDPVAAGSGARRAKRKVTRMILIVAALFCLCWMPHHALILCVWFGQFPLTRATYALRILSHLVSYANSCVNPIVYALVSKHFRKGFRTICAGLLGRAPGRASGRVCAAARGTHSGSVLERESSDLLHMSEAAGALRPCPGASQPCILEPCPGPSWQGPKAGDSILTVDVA

effect [1]: 35.4% | effect [2]: 10.5% | effect [3]: 5.75% | effect [4]: -2.7% | effect [5]: 1.6% | effect [6]: 4.2% | effect [7]: -7.65% | effect [8]: 1% | effect [9]: -5.7% | effect [10]: 20.4% | effect [11]: 1.85% | Ki ([12]; read-out: Ki): 773 nM | Ki ([12]; read-out: pKi (converted)): 741 nM | effect [13]: 1.4% | effect [14]: 69% | effect [15]: 14.2% | effect [16]: 32.5% | effect [17]: 0.85% | effect [18]: 19.3% | effect [19]: 11.5% | effect [20]: 7%
SMILES: CC(=O)Nc1ncc(CN2CCC[C@H](Cc3cc(C)nc(C)c3)C2)s1 [JNJ-65355394]

inhibition [21]: -8.59% | Ki ([22]; read-out: Ki): 5.28 µM | Ki ([22]; read-out: pKi (converted)): 5.25 µM | Ki ([23]; read-out: Ki): 1400 nM | Ki ([23]; read-out: pKi (converted)): 1350 nM | Ki ([24]; read-out: Ki): 2610 nM | Ki ([24]; read-out: pKi (converted)): 2570 nM | Ki [25]: 63.3 nM | inhibition [26]: 0.93%
SMILES: CC(=O)Nc1nc(CN2CCC[C@H](Cc3cc(C)nc(C)c3)C2)cs1 [JNJ-73924149]
